{
  "source": "patent US7569526B2",
  "about": "“Anti-oxidants in soluble oil base for metal working fluids” (Crompton Corporation, priority 2003, dated 2009)",
  "key": {"[1]": {"test": "Modified ASTM D3946 bottle test, sediment and pH (Examples 25-34)", "assay_type": "physicochemical", "details": "25° C.; filtered at end of test", "method": "(§1) A modified ASTM D3946 method was run according to the following procedure:\n(§2) 1. A 1-quart straight side jar was filled with 500 mL of emulsion. (Note: the straight sides of the jar allow culture plates to be immersed in the emulsion in situ. No steel chips were added.)\n(§3) 2. While immersed in a 25° C. water bath, the jars were sparged with air using a disposable pipette at a flow rate of approximately 500 mL/min. (Note: this may need to be adjusted depending on the air supply and the amount of foaming observed).\n(§4) 3. The pH was measured using standard pH paper or pH meter and bacteria/fungus counts were measured at one and two week intervals using culture plates (SaniCheck BF culture plates from Biosan Laboratories, Inc. were use in this study, but there are many suppliers available). Although the manufacturers protocol called for incubation between 24 and 36 hours, the bacteria counts were measured after 24, 30, and 48-hour incubations at 28° C. The bacterial onset was measured as the number of weeks necessary to observe at least a 10^3 bacteria count/mL on the culture plate (threshold value of this type of plate). Optionally, the average bacterial count can be calculated over the length of the test period.\n4. At the end of the test, the solutions were filtered through medium filter paper (Whatman #2) and the amount of sediment recovered was weighed.\n(§5) 5. Unless noted above, the other test details are identical to ASTM D3946.\nIn this case, after 22 weeks the pH broke and dropped from 9.0 to 7.0. In all other samples, the pH was measured between 8.5 and 9.0, without significant change over the test period."}, "[2]": {"tested_on": "bacteria", "test": "Modified ASTM D3946 bottle test, bacteria count and onset (Examples 25-34)", "assay_type": "cell-based", "details": "30 hours of incubation", "method": "as §1, §2, §3, §4, §5\nThe biological activity was evaluated using a Sanicheck BF Conversion Chart. […]"}, "[3]": {"test": "TOST, standard ASTM D943 (95° C.), acid number", "assay_type": "physicochemical", "details": "0.5% Triadine-3 in Hyprene H100; two separate runs; baseline", "excerpt": "(§6) The antioxidants used in this study were received from internal and external commercial sources without alteration. The sample of butylated DPA was from a preparation of Naugalube 640 in which the sample was enriched in butylated DPA.\nCombining the results of Examples 11-24 with those of Examples 1-10, the synergies involved in the oxidation testing used can be seen. […] Hyprene H100 is a 100 SUS naphthenic oil. Although there is a large variation in the baseline, the general antioxidant chemistry trends (phenolic vs. aminic) were consistent."}, "[4]": {"test": "RBOT, standard ASTM D2272 (150 C.), bomb life", "assay_type": "physicochemical", "excerpt": "as §6\nThe ASTM D2272 method was run according to the standard procedure using a 10/90 (oil/water) emulsion as a test sample."}, "[5]": {"test": "Modified ASTM D2272 (150 C.), constant time", "assay_type": "physicochemical", "details": "after oxidation", "method": "1. Charge the vessel with 50 grams of the emulsion sample provided.\n3. Unless noted above, the other test details are identical to ASTM D2272.\nWith the success of the 95° C. modified ASTM, thermal breakdown for the metalworking fluids at even higher temperature was tested. The test chosen was a modified ASTM D2272 (RBOT) which is run at 150° C. in a sealed bomb, which should provide sufficient stress to provide significant oxidative breakdown of the metalworking fluid. The test was modified so that after the inhibited sample had reduced pressure by 175 psi, all of the oxidations were stopped so that the time of the oxidation would be a constant (typically the test is run to a constant pressure drop value and the time is allowed to vary). […] Additionally, the pH of all samples dropped from the initial 9.0 to 3.0, with the exception of the sample of Naugalube 640, which dropped to 7.0."}, "[6]": {"test": "Modified ASTM D943 oxidation (95 C.), constant time", "assay_type": "physicochemical", "details": "aging time 312 hrs", "method": "1. Fill the oxidation test tube with 300 ml of the emulsion sample provided.\n2. When the first sample containing no antioxidant or biocide reaches a TAN (total acid number) of 2.0 mg/g KOH, stop all of the oxidations at that same time and measure the TAN. During the course of the testing it may be necessary to add a small amount of defoamer (1 drop of Foam Ban MS-575 from Ultra Additives) to prevent excessive foaming and loss of sample out of the top of the test apparatus. 3. Unless noted above the other test details are identical to ASTM D943\nAccordingly, additional thermal stress was applied to accentuate differences in antioxidant performance. The test chosen to do this was a modified ASTM D943 run at 95° C., which it was expected would provide some oxidative breakdown of the metalworking fluid. The test was modified so that after the uninhibited sample had reached a TAN value of 2 mg KOH/g all of the oxidations were stopped so that the time of the oxidation would be a constant (typically the test is run to a constant TAN value and the time is allowed to vary)."}},
  "note": "Values joined by “and” are separate entries in the source; they are usually repeats but may differ in a detail not shown here. Equal entries are not always repeated.",
  "data": [
    {"molecule": "CC(C)(C)c1cc(CCC(=O)OCCSCCOC(=O)CCc2cc(C(C)(C)C)c(O)c(C(C)(C)C)c2)cc(C(C)(C)C)c1O", "note": "[AX 15, Thiodiethylene-bis(3,5-di-t-butyl-4-hydroxyhydrocinnamate)]", "values": [
      {"measurement": "Sediment", "setting": "[1]", "result": "reduced the sediment"}
    ]},
    {"molecule": "Cc1cc(C(C)(C)C)c(O)c(C(C)(C)C)c1", "note": "[BHT, 2,6-di-t-butyl hydroxytoluene]", "values": [
      {"measurement": "synergy of antioxidant and biocide on onset time", "setting": "[2]", "result": "weakest"},
      {"measurement": "Sediment", "setting": "[1]", "result": "antagonistically increased the sediment in combination with biocide"}
    ]},
    {"molecule": "OCCN1CN(CCO)CN(CCO)C1", "note": "[Triadine 3, 1,3,5-tris(hydroxyethyl)-s-triazine]", "values": [
      {"measurement": "Oxidation Lifetime", "setting": "[3]", "result": "492 h and 836 h"},
      {"measurement": "Bomb Life", "setting": "[4]; 0.5% Triadine-3 in Hyprene H100, two separate runs, baseline", "result": "35 min and 37 min"}
    ]},
    {"molecule": "butylated octylated diphenylamine [Naugalube 640]", "values": [
      {"measurement": "synergy of antioxidant and biocide on onset time", "setting": "[2]", "result": "strongest"},
      {"measurement": "Cream (%)", "setting": "[5]", "result": "< 1.0", "unit": "%"},
      {"measurement": "pH", "setting": "[5]; initial 9.0", "result": 7.0},
      {"measurement": "Sediment", "setting": "[1]", "result": "reduced the sediment"},
      {"measurement": "Bomb Life (min)", "setting": "[4]; 150 C., Table 1 blends", "result": "terminated before a break point was ever observed"}
    ]},
    {"molecule": "butylated octylated diphenylamine [butylated DPA]", "values": [
      {"measurement": "Sediment", "setting": "[1]", "result": "reduced the sediment"}
    ]},
    {"molecule": "mono-, di-, and tri-, nonylated diphenylamine [Naugalube 438L]", "values": [
      {"measurement": "Cream (%)", "setting": "[6]", "result": "no significant cream"}
    ]},
    {"molecule": "octylated phenyl-α-naphthylamine [Naugalube APAN]", "values": [
      {"measurement": "Cream (%)", "setting": "[6]", "result": "no significant cream"}
    ]}
  ]
}
